This is an account of results in patent US5679805A, “Photochromic spironaphthopyran compounds” (Vision-Ease Lens, Inc., priority 1995, dated 1997).

Data set [1] in a line: fade time T1/2 of chloroform-dissolved photochromic compounds after isolation from ultraviolet light. It is filed as physicochemical. Set-up: key to T1/2 (fade time), footnoted reading: *: Fades too fast to obtain readings. The note with it: room temperature (72° F.); for T1/2 (fade time): absorbance of activated form to one half of maximum. On the procedure: Additionally, a purchased sample of 3,3-diphenyl-naphtho-3H[2,1-b]pyran, identified as Comparative Example 2, was dissolved in a separate container of chloroform.
Each of the chloroform-dissolved photochromic compounds of Examples 1-3 and Comparative Examples 1-2 were then irradiated with ultraviolet light with a maximum wavelength of 350 nanometers, and the maximum absorption wavelength λmax was determined for each of the chloroform-dissolved photochromic compound. The fade time, T1/2 was then determined for each of the irradiated compounds. The fade time for a particular chloroform dissolved photochromic compound is defined as the time interval, at room temperature (72° F.), for the absorbance of the activated form of the chloroform-dissolved photochromic compound to decrease to one half of the maximum absorbance, after the photochromic compound is isolated from the activating source of ultraviolet light. The maximum absorption wavelength and fade time determined for each of the irradiated photochromic compounds of Examples 1-3 and Comparative Examples 1-2 are presented in Table 1: […]

The nature of data set [2]: maximum absorption wavelength of chloroform-dissolved photochromic compounds irradiated with ultraviolet light. It is filed as physicochemical. The note with it: for maximum absorption wavelength λmax: Chloroform, maximum wavelength of 350 nanometers; for maximum wavelength of activation vs Comparative Example 1: compared with Comparative Example 1, 3,3-diphenyl-8-methoxy-3H-naphtho[2,1-b]pyran.

The nature of data set [3]: color on activation by ultraviolet light. The format is physicochemical.
The conditions of data set [4]: cited from earlier work.
Setting [5] is: irradiated with ultraviolet light.

`COc1ccc2c3c(ccc2c1)OC(c1ccccc1)(c1ccccc1)C=C3` [Comparative Example 1, 3,3-diphenyl-8-methoxy-3H-naphtho[2,1-b]pyran, reference compound]: in data set [1], the “T1/2 (fade time)” value amounted to 10 s.

As to `C1=CC2(Oc3ccc4c5c(ccc4c31)OC1(C=C5)c3ccccc3-c3ccccc31)c1ccccc1-c1ccccc12` [Example 1], the “maximum absorption wavelength λmax” value in data set [2] (setting [5]) was 490. Besides, the “maximum wavelength of activation vs Comparative Example 1” value in data set [2] is “longer maximum wavelength of activation”. Besides, the “T1/2 (fade time), footnoted reading” value in data set [1] is on record as “*”.

For the compound `C1=CC2(Oc3ccc4c5c(ccc4c31)OC1(C=C5)c3ccccc3Sc3ccccc31)c1ccccc1Sc1ccccc12` [Example 2], the “maximum absorption wavelength λmax” value in data set [2] (setting [5]) is on record as 502. Further, the “maximum wavelength of activation vs Comparative Example 1” value in data set [2] is reported as “longer maximum wavelength of activation”. The “activated maximum wavelength of absorption” value in data set [2] (dissolved in chloroform, irradiated with ultraviolet light) is recorded as “about 502 nanometers”. Moreover, the “T1/2 (fade time)” value in data set [1] was determined as 1.9 s. In addition, the “color when activated by ultraviolet light” value in data set [3] (activated by ultraviolet light) is “deep shade of red”. The “color of blend with blue-turning photochromic compounds when activated” value in data set [3] (blend with blue-turning photochromic compounds, such as substituted spiroindolino naphthoxazine, ultraviolet radiation) is on record as “intense shade of gray”.

Consider `C1=CC(c2ccccc2)(c2ccccc2)Oc2ccc3ccccc3c21` [Comparative Example 2, 3,3-diphenyl-naphtho-3H[2,1b]pyran, reference compound], for which the “maximum absorption wavelength λmax” value in data set [2] (setting [5]) is 435. Further, the “T1/2 (fade time)” value in data set [1] turned out to be 13 s. In data set [4], the “photochromic at room temperature” value was “photochromic at room temperature”.
